Data: patent US11000033B2, “Ketone or oxime compound, and herbicide” (NISSAN CHEMICAL CORPORATION, priority 2014, dated 2021)

Key:
Assay type in all cases: in vivo
Setaria viridis = assay: Test Example 5: herbicidal effect by foliage application, plastic box (symbol G); conditions: 320 g/ha, 3 weeks after application
Outline: (§1)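 Seeds were sown in sterilized diluvial soil, covered with about 1.5 cm of soil and grown 14 days in a greenhouse at 25° C. to 30° C. An emulsifiable formulation diluted in water to a set rate was sprayed over foliage, and injury was scored 3 weeks later.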

[1] = tested on: Echinochloa oryzacola Vasing.; assay: Test Example 2: herbicidal activity, application during weed generation in submerged conditions (symbol A); conditions: Table 23; application herbicide amount 320 g/ha; grade 0-5 by criteria of Test Example 1
Outline: (§2)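 Read-out: herbicidal effect on each species rated on a visual scale 3 weeks after treatment. Plants were raised together from seed in flooded alluvial soil (4 cm water) at 25° C. to 30° C. and treated at one to two leaves by water-surface application of diluted emulsion.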

wheat = assay: Test Example 4: effect on crop by soil treatment (symbol e); conditions: 320 g/ha
Outline: (§3)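 Crop seeds, among them rice, wheat, beet and rapeseed, were sown in sterilized diluvial soil and covered with about 1.5 cm of soil. Boxes were kept in a greenhouse at 25° C. to 30° C. for plant growth.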

Amaranthus retroflexus [2] = assay: Test Example 4: herbicidal effect by soil treatment (symbol N); conditions: 320 g/ha
Outline: (§4)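 Seeds were sown in sterilized diluvial soil, covered with about 1.5 cm of soil, and the soil surface was sprayed with a water-diluted emulsion of the compound at a predetermined rate. Plants grew in a greenhouse at 25° C. to 30° C.; effects were scored visually 3 weeks after application.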

Stellaria media = assay: Test Example 5: herbicidal effect by foliage application, plastic box (symbol P); conditions: 320 g/ha, 3 weeks after application
Outline: as §1

Cyperus difformis = assay: Test Example 3: herbicidal effect by foliage application, Wagner pot (symbol E); conditions: application herbicide amount 320 g/ha
Outline: (§5)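 Scoring took place 3 weeks after application, using fixed criteria. Plants had been raised from seed for 14 days at 25 to 30 °C in submerged alluvial soil before a diluted emulsion of the test compound was sprayed uniformly on the leaves.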

[3] = tested on: Echinochloa crus-galli var. crus-galli; assay: Test Example 4: herbicidal effect by soil treatment (symbol H); conditions: 320 g/ha
Outline: as §4

beet [4] = assay: Test Example 5: effect on crop by foliage application, plastic box (symbol f); conditions: 320 g/ha, 3 weeks after application
Outline: (§6)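 Greenhouse culture at 25° C. to 30° C. followed spot-like sowing into sterilized diluvial soil, with seed covered by roughly 1.5 cm of soil.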

Abutilon theophrasti = assay: Test Example 5: herbicidal effect by foliage application, plastic box (symbol M); conditions: 320 g/ha, 3 weeks after application
Outline: as §1

Amaranthus retroflexus [5] = assay: Test Example 5: herbicidal effect by foliage application, plastic box (symbol N); conditions: 320 g/ha, 3 weeks after application
Outline: as §1

beet [6] = assay: Test Example 4: effect on crop by soil treatment (symbol f); conditions: 320 g/ha
Outline: as §3

rice plant = assay: Test Example 5: effect on crop by foliage application, plastic box (symbol b); conditions: 320 g/ha, 3 weeks after application
Outline: as §6

Alopecurus myosuroides = assay: Test Example 4: herbicidal effect by soil treatment (symbol J); conditions: 320 g/ha
Outline: as §4

Scirpus juncoides = assay: Test Example 2: herbicidal activity, application during weed generation in submerged conditions (symbol B); conditions: Table 23; application herbicide amount 320 g/ha; grade 0-5 by criteria of Test Example 1
Outline: as §2

Veronica persica = assay: Test Example 5: herbicidal effect by foliage application, plastic box (symbol R); conditions: 320 g/ha, 3 weeks after application
Outline: as §1

Chenopodium album [7] = assay: Test Example 5: herbicidal effect by foliage application, plastic box (symbol O); conditions: 320 g/ha, 3 weeks after application
Outline: as §1

[8] = tested on: Echinochloa crus-galli var. crus-galli; assay: Test Example 3: herbicidal effect by foliage application, Wagner pot (symbol H); conditions: application herbicide amount 320 g/ha
Outline: as §5

Chenopodium album [9] = assay: Test Example 4: herbicidal effect by soil treatment (symbol O); conditions: 320 g/ha
Outline: as §4

Lolium multiflorum Lam. = assay: Test Example 4: herbicidal effect by soil treatment (symbol K); conditions: 320 g/ha
Outline: as §4

soybean = assay: Test Example 4: effect on crop by soil treatment (symbol d); conditions: 320 g/ha
Outline: as §3

Structure (SMILES): CON=C(C)CC1CC(OC(=O)c2cnoc2C2CC2)=C(c2c(C)cc(C)cc2C)C1=O (stereo not drawn) [1-103]
- G: Setaria viridis, herbicidal effect (criteria 0-5) (Setaria viridis): 5 (Herbicidal ratio of 90% or more (almost completely withered))
- Herbicidal effect grade, A: Echinochloa oryzacola Vasing. [1]: 5 (Herbicidal ratio of 90% or more (almost completely withered))
- e: wheat, effect grade on crop (wheat): 4 (Herbicidal ratio of 70% or higher and lower than 90%)
- N: Amaranthus retroflexus, herbicidal effect grade (Amaranthus retroflexus [2]): 5 (Herbicidal ratio of 90% or more (almost completely withered))
- P: Stellaria media, herbicidal effect (criteria 0-5) (Stellaria media): 2 (Herbicidal ratio of 20% or higher and lower than 40%)
- herbicidal effect on E, grade 0-5 (Cyperus difformis): 5 (Herbicidal ratio of 90% or more (almost completely withered))
- H: Echinochloa crus-galli var. crus-galli, herbicidal effect grade [3]: 5 (Herbicidal ratio of 90% or more (almost completely withered))
- f: beet, effect on crop (criteria 0-5) (beet [4]): 0 (Herbicidal ratio of 5% or lower (almost no effect))
- M: Abutilon theophrasti, herbicidal effect (criteria 0-5) (Abutilon theophrasti): 4 (Herbicidal ratio of 70% or higher and lower than 90%)
- N: Amaranthus retroflexus, herbicidal effect (criteria 0-5) (Amaranthus retroflexus [5]): 0 (Herbicidal ratio of 5% or lower (almost no effect))
- f: beet, effect grade on crop (beet [6]): 0 (Herbicidal ratio of 5% or lower (almost no effect))
- b: directly sowed rice plant, effect on crop (criteria 0-5) (rice plant): 5 (Herbicidal ratio of 90% or more (almost completely withered))
- J: Alopecurus myosuroides, herbicidal effect grade (Alopecurus myosuroides): 5 (Herbicidal ratio of 90% or more (almost completely withered))
- Herbicidal effect grade, B: Scirpus juncoides (Scirpus juncoides): 4 (Herbicidal ratio of 70% or higher and lower than 90%)
- R: Veronica persica, herbicidal effect (criteria 0-5) (Veronica persica): 3 (Herbicidal ratio of 40% or higher and lower than 70%)
- O: Chenopodium album, herbicidal effect (criteria 0-5) (Chenopodium album [7]): 2 (Herbicidal ratio of 20% or higher and lower than 40%)
- herbicidal effect on H (Echinochloa crus-galli var. crus-galli), grade 0-5 [8]: 5 (Herbicidal ratio of 90% or more (almost completely withered))
- O: Chenopodium album, herbicidal effect grade (Chenopodium album [9]): 0 (Herbicidal ratio of 5% or lower (almost no effect))
- K: Lolium multiflorum Lam., herbicidal effect grade (Lolium multiflorum Lam.): 5 (Herbicidal ratio of 90% or more (almost completely withered))
- d: soybean, effect grade on crop (soybean): 1 (Herbicidal ratio of 5% or higher and lower than 20%)

Structure (SMILES): CON=C(C)CON=C(C)CC1CC(O)=C(c2c(C)cc(C)cc2C)C1=O (stereo not drawn) [1-105]
- G: Setaria viridis, herbicidal effect (criteria 0-5) (Setaria viridis): 5 (Herbicidal ratio of 90% or more (almost completely withered))
- Herbicidal effect grade, A: Echinochloa oryzacola Vasing. [1]: 5 (Herbicidal ratio of 90% or more (almost completely withered))
- e: wheat, effect grade on crop (wheat): 3 (Herbicidal ratio of 40% or higher and lower than 70%)
- N: Amaranthus retroflexus, herbicidal effect grade (Amaranthus retroflexus [2]): 4 (Herbicidal ratio of 70% or higher and lower than 90%)
- P: Stellaria media, herbicidal effect (criteria 0-5) (Stellaria media): 1 (Herbicidal ratio of 5% or higher and lower than 20%)
- herbicidal effect on E, grade 0-5 (Cyperus difformis): 5 (Herbicidal ratio of 90% or more (almost completely withered))
- H: Echinochloa crus-galli var. crus-galli, herbicidal effect grade [3]: 5 (Herbicidal ratio of 90% or more (almost completely withered))
- f: beet, effect on crop (criteria 0-5) (beet [4]): 0 (Herbicidal ratio of 5% or lower (almost no effect))
- M: Abutilon theophrasti, herbicidal effect (criteria 0-5) (Abutilon theophrasti): 1 (Herbicidal ratio of 5% or higher and lower than 20%)
- N: Amaranthus retroflexus, herbicidal effect (criteria 0-5) (Amaranthus retroflexus [5]): 0 (Herbicidal ratio of 5% or lower (almost no effect))
- f: beet, effect grade on crop (beet [6]): 0 (Herbicidal ratio of 5% or lower (almost no effect))
- b: directly sowed rice plant, effect on crop (criteria 0-5) (rice plant): 5 (Herbicidal ratio of 90% or more (almost completely withered))
- J: Alopecurus myosuroides, herbicidal effect grade (Alopecurus myosuroides): 5 (Herbicidal ratio of 90% or more (almost completely withered))
- Herbicidal effect grade, B: Scirpus juncoides (Scirpus juncoides): 5 (Herbicidal ratio of 90% or more (almost completely withered))
- R: Veronica persica, herbicidal effect (criteria 0-5) (Veronica persica): 3 (Herbicidal ratio of 40% or higher and lower than 70%)
- O: Chenopodium album, herbicidal effect (criteria 0-5) (Chenopodium album [7]): 2 (Herbicidal ratio of 20% or higher and lower than 40%)
- herbicidal effect on H (Echinochloa crus-galli var. crus-galli), grade 0-5 [8]: 5 (Herbicidal ratio of 90% or more (almost completely withered))
- O: Chenopodium album, herbicidal effect grade (Chenopodium album [9]): 0 (Herbicidal ratio of 5% or lower (almost no effect))
- K: Lolium multiflorum Lam., herbicidal effect grade (Lolium multiflorum Lam.): 5 (Herbicidal ratio of 90% or more (almost completely withered))
- d: soybean, effect grade on crop (soybean): 0 (Herbicidal ratio of 5% or lower (almost no effect))

Structure (SMILES): CC(CC1CC(O)=C(c2c(C)cc(C)cc2C)C1=O)=NOC1CCCC1 (stereo not drawn) [1-106]
- G: Setaria viridis, herbicidal effect (criteria 0-5) (Setaria viridis): 5 (Herbicidal ratio of 90% or more (almost completely withered))
- Herbicidal effect grade, A: Echinochloa oryzacola Vasing. [1]: 5 (Herbicidal ratio of 90% or more (almost completely withered))
- e: wheat, effect grade on crop (wheat): 3 (Herbicidal ratio of 40% or higher and lower than 70%)
- N: Amaranthus retroflexus, herbicidal effect grade (Amaranthus retroflexus [2]): 0 (Herbicidal ratio of 5% or lower (almost no effect))
- P: Stellaria media, herbicidal effect (criteria 0-5) (Stellaria media): 2 (Herbicidal ratio of 20% or higher and lower than 40%)
- herbicidal effect on E, grade 0-5 (Cyperus difformis): 5 (Herbicidal ratio of 90% or more (almost completely withered))
- H: Echinochloa crus-galli var. crus-galli, herbicidal effect grade [3]: 5 (Herbicidal ratio of 90% or more (almost completely withered))
- f: beet, effect on crop (criteria 0-5) (beet [4]): 0 (Herbicidal ratio of 5% or lower (almost no effect))
- M: Abutilon theophrasti, herbicidal effect (criteria 0-5) (Abutilon theophrasti): 1 (Herbicidal ratio of 5% or higher and lower than 20%)
- N: Amaranthus retroflexus, herbicidal effect (criteria 0-5) (Amaranthus retroflexus [5]): 5 (Herbicidal ratio of 90% or more (almost completely withered))
- f: beet, effect grade on crop (beet [6]): 0 (Herbicidal ratio of 5% or lower (almost no effect))
- b: directly sowed rice plant, effect on crop (criteria 0-5) (rice plant): 5 (Herbicidal ratio of 90% or more (almost completely withered))
- J: Alopecurus myosuroides, herbicidal effect grade (Alopecurus myosuroides): 5 (Herbicidal ratio of 90% or more (almost completely withered))
- Herbicidal effect grade, B: Scirpus juncoides (Scirpus juncoides): 0 (Herbicidal ratio of 5% or lower (almost no effect))
- R: Veronica persica, herbicidal effect (criteria 0-5) (Veronica persica): 1 (Herbicidal ratio of 5% or higher and lower than 20%)
- O: Chenopodium album, herbicidal effect (criteria 0-5) (Chenopodium album [7]): 2 (Herbicidal ratio of 20% or higher and lower than 40%)
- herbicidal effect on H (Echinochloa crus-galli var. crus-galli), grade 0-5 [8]: 5 (Herbicidal ratio of 90% or more (almost completely withered))
- O: Chenopodium album, herbicidal effect grade (Chenopodium album [9]): 0 (Herbicidal ratio of 5% or lower (almost no effect))
- K: Lolium multiflorum Lam., herbicidal effect grade (Lolium multiflorum Lam.): 5 (Herbicidal ratio of 90% or more (almost completely withered))
- d: soybean, effect grade on crop (soybean): 0 (Herbicidal ratio of 5% or lower (almost no effect))
